What all share (assay type): in vivo
Experiment [1] deals with Indian Mustard. In words: Pre-emergence herbicide test. As to conditions: Brassica juncea, read-out: % plant inhibition (Inmu); for inhibition at 1120 g/ha: 1.12 kg/ha. The protocol:
(§1) The tests for pre-emergence herbicide activity are conducted as follows:
(§2) Topsoil is placed in an aluminum pan and compacted to a depth of 0.95 to 1.27 cm from the top of the pan. On the top of the soil is placed a predetermined number of seeds of each of several monocotyledonous and dicotyledonous annual plant species and/or vegetative propagules of various perennial plant species. A known amount of the active ingredient dissolved or suspended in an organic solvent, e.g., acetone, or water as carrier is then applied directly to the seed bed, which is then covered with a layer of untreated topsoil to level fill the pan. After treatment, the pans are moved to a greenhouse bench where they are watered from below as needed to give adequate moisture for germination and growth.
(§3) Approximately 10-14 days (usually 11 days) after seeding and treating, the pans are observed and the results (% inhibition) are recorded.
(§4) Tables 7 and 7A below summarize the results of the pre-emergence herbicidal activity tests of compounds of this invention in weeds. The herbicidal rating shown in these tables is the percent inhibition of each plant species. The plant species usually regarded as weeds which are utilized in one set of tests, the data for which are shown in the tables, are identified by letter headings above the columns in accordance with the following legend: […]

The subject of experiment [2] is Annual bluegrass. Briefly: Pre-emergence herbicide test. Particulars: read-out: % plant inhibition (Anbg); for inhibition at 1120 g/ha: 1.12 kg/ha. The protocol: as §1, §2, §3, §4
For experiment [3], the system named is Cocklebur. In words: Pre-emergence herbicide test. Particulars: Xanthium strumarium, read-out: % plant inhibition (Cobu); for inhibition at 1120 g/ha: 1.12 kg/ha. The procedure: as §1, §2, §3, §4
Experiment [4] concerns Downy Brome. Briefly: Pre-emergence herbicide test. As to conditions: Bromus tectorum, read-out: % plant inhibition (Dobr); for inhibition at 1120 g/ha: 1.12 kg/ha. The procedure:
as §1, §2, §3, §4

The test system of experiment [5] is Seedling johnsongrass. In words: Pre-emergence herbicide test. Particulars: Sorghum halepense, read-out: % plant inhibition (Sejg); for inhibition at 1120 g/ha: 1.12 kg/ha. The procedure:
as §1, §2, §3, §4

For experiment [6], the system named is Yellow nutsedge. In words: Pre-emergence herbicide test. Particulars: Cyperus, read-out: % plant inhibition (Yens); for inhibition at 1120 g/ha: 1.12 kg/ha. The protocol:
as §1, §2, §3, §4

For experiment [7], the system named is Barnyardgrass. Briefly: Pre-emergence herbicide test. Particulars: Echinochloa crus-galli, read-out: % plant inhibition (Bygr); for inhibition at 1120 g/ha: 1.12 kg/ha. The protocol: as §1, §2, §3, §4
Experiment [8] has as its system Wild buckwheat. In words: Pre-emergence herbicide test. As to conditions: Fallopia convolvulus, read-out: % plant inhibition (Wibw); for inhibition at 1120 g/ha: 1.12 kg/ha. The protocol:
as §1, §2, §3, §4

The subject of experiment [9] is Morningglory. Briefly: Pre-emergence herbicide test. As to conditions: Ipomoea, read-out: % plant inhibition (Mogl); for inhibition at 1120 g/ha: 1.12 kg/ha. The protocol:
as §1, §2, §3, §4

The subject of experiment [10] is Velvetleaf. In words: Pre-emergence herbicide test. Particulars: Abutilon theophrasti, read-out: % plant inhibition (Vele); for inhibition at 1120 g/ha: 1.12 kg/ha. The procedure: as §1, §2, §3, §4
The test system of experiment [11] is Indian Mustard. Briefly: Post-emergence herbicide test. As to conditions: Brassica juncea, read-out: % plant inhibition (Inmu); for inhibition at 1120 g/ha: 1.12 kg/ha. An excerpt: (§5) Topsoil is placed in aluminum pans having holes in the bottom and compacted to a depth of 0.95 to 1.27 cm from the top of the pan. A predetermined number of seeds of each of several dicotyledonous and monocotyledonous annual plant species and/or vegetative propagules for the perennial plant species are placed on the soil and pressed into the soil surface. The seeds and/or vegetative propagules are covered with soil and leveled. The pans are then placed on a bench in the greenhouse and watered from below as needed. After the plants reach the desired age (two to three weeks), each pan, is removed individually to a spraying chamber and sprayed by means of an atomizer, operating at a spray pressure of 170.3 kPa (10 psig) at the application rates noted. In the spray solution is an amount of an emulsifying agent mixture to give a spray solution or suspension which contains about 0.4% by volume of the emulsifier. The spray solution or suspension contains a sufficient amount of the candidate chemical in order to give application rates of the active ingredient corresponding to those shown in Tables 8 and 8A, while applying a total amount of solution or suspension equivalent to 1870 L/Ha (200 gallons/acre). The pans were returned to the greenhouse and watered as before and the injury to the plants as compared to the control is observed at approximately 10-14 days (usually 11 days) and in some instances observed again at 24-28 days (usually 25 days) after spraying. The post-emergent herbicidal activity shown in these tables is the percent inhibition of each plant species.

In experiment [12] the test system is Annual bluegrass. Briefly: Post-emergence herbicide test. Particulars: read-out: % plant inhibition (Anbg); for inhibition at 1120 g/ha: 1.12 kg/ha.
Source text: as §5

Experiment [13] concerns Cocklebur. In words: Post-emergence herbicide test. As to conditions: Xanthium strumarium, read-out: % plant inhibition (Cobu); for inhibition at 1120 g/ha: 1.12 kg/ha.
Source text: as §5

The test system of experiment [14] is Downy Brome. Briefly: Post-emergence herbicide test. As to conditions: Bromus tectorum, read-out: % plant inhibition (Dobr); for inhibition at 1120 g/ha: 1.12 kg/ha.
Source text: as §5

Experiment [15] relates to Seedling johnsongrass. In words: Post-emergence herbicide test. As to conditions: Sorghum halepense, read-out: % plant inhibition (Sejg); for inhibition at 1120 g/ha: 1.12 kg/ha.
Source text: as §5

The test system of experiment [16] is Yellow nutsedge. Briefly: Post-emergence herbicide test. Particulars: Cyperus, read-out: % plant inhibition (Yens); for inhibition at 1120 g/ha: 1.12 kg/ha.
Source text: as §5

For experiment [17], the system named is Barnyardgrass. In words: Post-emergence herbicide test. Particulars: Echinochloa crus-galli, read-out: % plant inhibition (Bygr); for inhibition at 1120 g/ha: 1.12 kg/ha.
Source text: as §5

The subject of experiment [18] is Wild buckwheat. Briefly: Post-emergence herbicide test. Particulars: Fallopia convolvulus, read-out: % plant inhibition (Wibw); for inhibition at 1120 g/ha: 1.12 kg/ha.
Source text: as §5

Experiment [19] deals with Morningglory. Briefly: Post-emergence herbicide test. As to conditions: Ipomoea, read-out: % plant inhibition (Mogl); for inhibition at 1120 g/ha: 1.12 kg/ha.
Source text: as §5

For experiment [20], the system named is Velvetleaf. Briefly: Post-emergence herbicide test. Particulars: Abutilon theophrasti, read-out: % plant inhibition (Vele); for inhibition at 1120 g/ha: 1.12 kg/ha.
Source text: as §5

For the compound `C#CCOCc1cc(-c2nn(C)c(C(F)(F)F)c2Cl)c(F)cc1Cl` [Compound 120], the inhibition (usually the relative decrease from the control value, in per cent) at 1120 g/ha in [1] amounted to 90%; in experiment [2], 70%; in [3], 30%; in experiment [4], 70%; in [5], 80%; in experiment [6] it was 10%. For the same compound, the inhibition at 1120 g/ha in experiment [7] turned out to be 80%; in [8], 100%; in experiment [9] it was 80%; in experiment [10] it was 100%; in [11] it was 70%; in experiment [12] it was 40%. The inhibition at 1120 g/ha in experiment [13] is 90%; in experiment [14] it was 50%; in experiment [15], 80%; in experiment [16], 10%; in experiment [17] it was 80%; in experiment [18] it was 100%. Besides, the inhibition at 1120 g/ha in experiment [19] and in experiment [20] was 100% in each case.
With `COC(=O)Cc1cc(-c2nn(C)c(C(F)(F)F)c2Cl)c(F)cc1Cl` [Compound 110], the inhibition at 1120 g/ha in experiment [1] worked out at 80%; in experiment [2], 0%; in experiment [3], 50%; in experiment [4], 0%; in experiment [5], 0%; in [6] it was 0%. Besides, the inhibition at 1120 g/ha in [7] came out at 20%; in experiment [8] it was 70%; in [9], 70%; in experiment [10] it was 100%; in experiment [11], 30%; in [12], 30%. Moreover, the inhibition at 1120 g/ha turned out to be 60% in [13]; 20% in experiment [14]; 40% in [15]; 20% in [16]; 70% in [17]; 100% in [18]. Also, the inhibition at 1120 g/ha in [19] was 80%; in [20], 100%.
Turning to `Cn1nc(-c2cc(NS(C)(=O)=O)c(Cl)cc2Cl)c(Cl)c1C(F)(F)F` [Compound 91], the inhibition at 1120 g/ha in experiment [1] was determined as 90%; in experiment [2], 0%; in experiment [3], 20%; in [4], 0%; in [5], 0%; in [6], 0%. In addition, the inhibition at 1120 g/ha in [7] stood at 0%; in experiment [8] it was 70%; in experiment [9], 90%; in experiment [10], 100%; in [11] it was 50%; in experiment [12], 50%. In addition, the inhibition at 1120 g/ha in experiment [13] worked out at 100%; in experiment [14], 40%; in experiment [15], 40%; in experiment [16], 10%; in [17], 30%; in [18], 80%. Also, the inhibition at 1120 g/ha in [19] was 60%; in experiment [20], 40%.
As to `CC(C)OC(=O)COCc1cc(-c2nn(C)c(C(F)(F)F)c2Cl)c(F)cc1Cl` [Compound 119], the inhibition at 11210 g/ha in experiment [1] (11.21 kg/ha) turned out to be 100%; in [2] (11.21 kg/ha), 10%; in experiment [3] (11.21 kg/ha), 100%; in [4] (11.21 kg/ha), 80%; in experiment [5] (11.21 kg/ha) it was 80%; in [6] (11.21 kg/ha), 70%. Further, the inhibition at 11210 g/ha in [7] (11.21 kg/ha), in [8] (11.21 kg/ha), in experiment [9] (11.21 kg/ha), in experiment [10] (11.21 kg/ha), in experiment [11] (11.21 kg/ha) and in experiment [12] (11.21 kg/ha) was 100% in each case. Moreover, the inhibition at 11210 g/ha in experiment [13] (11.21 kg/ha) is 100%; in [14] (11.21 kg/ha), 100%; in experiment [15] (11.21 kg/ha) it was 100%; in experiment [16] (11.21 kg/ha), 20%; in [17] (11.21 kg/ha), 100%; in experiment [18] (11.21 kg/ha), 100%. In addition, the inhibition at 11210 g/ha in experiment [19] (11.21 kg/ha) and in [20] (11.21 kg/ha) was 100% in each case.
Take `CC(C)COC(=O)c1cc(-c2nn(C)c(C(F)(F)F)c2Cl)c(F)cc1Cl` [Compound 139]: the inhibition at 1120 g/ha in experiment [1] came to 90%; in experiment [2], 20%; in experiment [3], 70%; in experiment [4], 80%; in experiment [5] it was 40%; in experiment [6] it was 20%. In addition, the inhibition at 1120 g/ha was found to be 30% in experiment [7]; 90% in experiment [8]; 70% in experiment [9]; 100% in experiment [10]; 100% in [11]; 90% in experiment [12]. The inhibition at 1120 g/ha came out at 90% in experiment [13]; 100% in experiment [14]; 100% in experiment [15]; 10% in [16]; 100% in [17]; 100% in experiment [18]. Besides, the inhibition at 1120 g/ha in experiment [19] and in experiment [20] was 100% each time.
`CC(C)CCOC(=O)COc1cc(-c2nn(C)c(C(F)(F)F)c2Cl)c(F)cc1Cl` [Compound 288]: the inhibition at 1120 g/ha in experiment [1] came to 20%; in experiment [2], 0%; in [3] it was 30%; in experiment [4], 0%; in [5], 0%; in experiment [6] it was 0%. Also, the inhibition at 1120 g/ha in experiment [7] was 0%; in experiment [8], 90%; in experiment [9], 100%; in experiment [10], 100%; in experiment [11], 90%; in [12], 0%. Moreover, the inhibition at 1120 g/ha is 100% in experiment [13]; 0% in experiment [14]; 20% in experiment [15]; 10% in experiment [16]; 50% in experiment [17]; 100% in [18]. Further, the inhibition at 1120 g/ha in experiment [19] and in experiment [20] was 100% throughout.

The values are drawn from patent US5530126A, “Process for the preparation of substituted 6-(pyrazol-3yl)-1,4-benzoxazin-3-ones” (Monsanto Company, priority 1994, dated 1996).
